How the values were obtained:
[1] = test system: patients with osteoarthritis; test: osteoarthritis patients, oral enteric coated tablets (Example 9); format: in vivo, human; details: diclofenac in the former, ibuprofen in the latter
Procedure: Lactoferrin extracted from bovine milk was formed into enteric coated tablets (Production Example 4) and given orally to a person whose right knee and right elbow were affected by osteoarthritis associated with the injuries caused by their falling off a bicycle and a person whose knee joints were affected by osteoarthritis associated with obesity. Lactoferrin was administered at a dose of 150 mg (450 mg per day) 3 times a day after each meal.

[2] = test system: volunteers affected by frozen shoulder; test: frozen shoulder volunteers, oral enteric coated tablets (Example 11); format: in vivo, human
Procedure: Three male volunteers […], each of who was affected frozen shoulder and could not raise either one of their hands above the shoulder, took orally the enteric coated tablets of lactoferrin from bovine milk (Production Example 4). […] They took lactoferrin in a daily dose of 450 mg in 3 uniformly divided portions after each meal. […] disappeared and was cured in one volunteer on day 7 after the initial administration and in the other volunteers on day 12 and on day 23 after the same, respectively.

male Wistar rats [3] = test: formalin test, comparison with diclofenac (Example 3); format: in vivo, rat; details: i.p. 30 minutes before formalin
Procedure: Male Wistar rats 6 weeks of age were used. The rats in one group were given bovine lactoferrin and those in another group were given a control drug, diclofenac, by intraperitoneal administration 30 minutes before injecting formalin into their foot pads. Their responses to pain are shown in FIG. 5: the phase 1 pain (left) and the phase 2 pain (right).
Lactoferrin and diclofenac were administered intraperitoneally 30 minutes before formalin injection both in the control group (n=4) and the diclofenac group (n=5). The pain inhibiting effect of diclofenac disappeared about 50 minutes after formalin injection, whereas the pain inhibiting effect of lactoferrin lasted long and even 60 minutes after formalin injection.

male Wistar rats [4] = test: formalin test, intrathecal administration, comparison with morphine (Example 12); format: in vivo; details: 30 minutes before formalin, bLF 0.1 to 100 μg/rat, rhLF 100 μg/rat, morphine 10 μg/rat, FIGS. 15
Procedure: Groups consisting of male Wistar rats 6 weeks of age (n=6 to 8) were intrathecally administered 0.1 to 100 μg/rat of bovine lactoferrin (bLF), 100 μg/rat of recombinant human lactoferrin (rhLF) or 10 μg/rat of morphine (Mor) 30 minutes before formalin was injected into their foot pads. The results are shown in FIGS. 15: the number of the foot-lifting times in the phase 1 pain (left graph) and the number of the foot-lifting times in the phase 2 pain (right graph).

| SMILES | response to earlier treatment [1] | response to earlier treatment [2] | inhibition of phase 1 pain (male Wistar rats [3]; FIG. 5) | inhibition of phase 2 pain (male Wistar rats [3]; FIG. 5) | duration of pain inhibiting effect after formalin injection (male Wistar rats [3]; FIGS. 7 and 8) | phase 1 pain (number of foot-lifting times) (male Wistar rats [4]) | phase 2 pain (number of foot-lifting times) (male Wistar rats [4]) |
| --- | --- | --- | --- | --- | --- | --- | --- |
| O=C(O)Cc1ccccc1Nc1c(Cl)cccc1Cl [diclofenac, reference compound] | failed to respond | failed to respond | did not | inhibited the phase 2 pain, but the degree of inhibition was low compared with that by lactoferrin | about 50 minutes | – | – |
| CC(C)Cc1ccc(C(C)C(=O)O)cc1 (centres unmarked) [ibuprofen] | failed to respond | – | – | – | – | – | – |
| CN1CC[C@]23c4c5ccc(O)c4O[C@H]2[C@@H](O)C=C[C@H]3[C@H]1C5 [morphine, reference compound] | – | – | – | – | – | inhibits | inhibits |

From patent publication US8399414B2, “Analgesics” (NRL Pharma, Inc., priority 2002, dated 2013)
